Test results as given in patent US11066414B2, “Cot modulators and methods of use thereof” (Gilead Sciences, Inc., priority 2015, dated 2021).

System: TNFα
Assay: Cot Monocyte TNFα Cell Based Assay
Details: Homo sapiens, Monocyte, read-out: EC50 TNF, LPS-stimulated human monocytes, TNFα

SMILES | EC50 [nM]
Cc1nc(F)ccc1[C@H](Nc1cc(Cl)c2ncc(C#N)c(NCC(C)(C)C)c2c1)c1nnn(C2CC2)c1C [Example 647, (S)-8-chloro-6-(((1-cyclopropyl-5-methyl-1H-1,2,3-triazol-4-yl)(6-fluoro-2-methylpyridin-3-yl)methyl)amino)-4-(neopentylamino)quinoline-3-carbonitrile] | 133
CC(C)(C)CNc1c(C#N)cnc2c(Cl)cc(N[C@H](c3cn(C4(C(F)(F)F)CC4)nn3)c3ccc(Cl)c4cnccc34)cc12 [Example 651, (S)-8-chloro-6-(((8-chloroisoquinolin-5-yl)(1-(1-(trifluoromethyl)cyclopropyl)-1H-1,2,3-triazol-4-yl)methyl)amino)-4-(neopentylamino)quinoline-3-carbonitrile] | 135
Cc1ncoc1[C@H](Nc1cc(C#N)c2ncc(C#N)c(NCC(C)(C)C)c2c1)c1cn(C2(C(F)F)CC2)nn1 [Example 657, (R)-6-(((1-(1-(difluoromethyl)-cyclopropyl)-1H-1,2,3-triazol-4-yl)(4-methyloxazol-5-yl)methyl)amino)-4-(neopentylamino)quinoline-3,8-dicarbonitrile] | 806
Cn1ccc2c([C@H](Nc3cc(Cl)c4ncc(C#N)c(NCC(C)(C)C)c4c3)c3cn(C4(C(F)(F)F)CC4)nn3)ccnc21 [Example 658, (S)-8-chloro-6-(((1-methyl-1H-pyrrolo[2,3-b]pyridin-4-yl)(1-(1-(trifluoromethyl)-cyclopropyl)-1H-1,2,3-triazol-4-yl)methyl)amino)-4-(neopentylamino)quinoline-3-carbonitrile] | 374
Cn1ccc2c([C@H](Nc3cc(C#N)c4ncc(C#N)c(NCC(C)(C)C)c4c3)c3cn(C4(C(F)(F)F)CC4)nn3)ccnc21 [Example 664, (S)-6-(((1-methyl-1H-pyrrolo[2,3-b]pyridin-4-yl)(1-(1-(trifluoromethyl)cyclopropyl)-1H-1,2,3-triazol-4-yl)methyl)amino)-4-(neopentylamino)quinoline-3,8-dicarbonitrile] | 154
CC(C)(C)CNc1c(C#N)cnc2c(Cl)cc(N[C@@H](c3ccc4cccnc4c3)c3cn(C4(C(F)F)CC4)nn3)cc12 [Example 699, (S)-8-chloro-6-(((1-(1-(difluoromethyl)cyclopropyl)-1H-1,2,3-triazol-4-yl)(quinolin-7-yl)methyl)amino)-4-(neopentylamino)quinoline-3-carbonitrile] | 386
Cc1nc(F)ccc1[C@H](Nc1cc(Cl)c2ncc(C#N)c(NCC(C)(C)C)c2c1)c1cn(CC(C)(F)F)nn1 [Example 749, (S)-8-chloro-6-(((1-(2,2-difluoropropyl)-1H-1,2,3-triazol-4-yl)(6-fluoro-2-methylpyridin-3-yl)methyl)amino)-4-(neopentylamino)quinoline-3-carbonitrile] | 66
Cc1nc(F)ccc1[C@H](Nc1cc(Cl)c2ncc(C#N)c(NCC(C)(C)C)c2c1)c1cn(C2(CC(F)(F)F)CC2)nn1 [Example 753, (S)-8-chloro-6-(((6-fluoro-2-methylpyridin-3-yl)(1-(1-(2,2,2-trifluoroethyl)-cyclopropyl)-1H-1,2,3-triazol-4-yl)methyl)amino)-4-(neopentylamino)quinoline-3-carbonitrile] | 59
Cc1nc(F)ccc1[C@H](Nc1cc(Cl)c2ncc(C#N)c(NCC(C)(C)C)c2c1)c1cn(C2(C(C)(C)C)CC2)nn1 [Example 761, (S)-6-(((1-(1-(tert-butyl)cyclopropyl)-1H-1,2,3-triazol-4-yl)(6-fluoro-2-methylpyridin-3-yl)methyl)amino)-8-chloro-4-(neopentylamino)quinoline-3-carbonitrile] | 69
CC(C)n1ccc2c([C@H](Nc3cc(Cl)c4ncc(C#N)c(NCC(C)(C)C)c4c3)c3cn(C4(C)CC4)nn3)cccc2c1=O [Example 774, (S)-8-chloro-6-(((2-isopropyl-1-oxo-1,2-dihydroisoquinolin-5-yl)(1-(1-methylcyclopropyl)-1H-1,2,3-triazol-4-yl)methyl)amino)-4-(neopentyl-amino)quinoline-3-carbonitrile] | 40
COc1ncccc1[C@H](Nc1cc(Cl)c2ncc(C#N)c(NCC(C)(C)C)c2c1)c1cn(C2(C(F)(F)F)CC2)nn1 [Example 782, (S)-8-chloro-6-(((2-methoxypyridin-3-yl)(1-(1-(trifluoromethyl)cyclopropyl)-1H-1,2,3-triazol-4-yl)methyl)amino)-4-(neopentylamino)quinoline-3-carbonitrile] | 177

Results, then the molecule that gave them:

EC50 [nM] | SMILES
1000 | COc1ccnc2cccc([C@H](Nc3cc(Cl)c4ncc(C#N)c(NCC(C)(C)C)c4c3)c3cn(C4(C(F)(F)F)CC4)nn3)c12 [Example 632, (S)-8-chloro-6-(((4-methoxyquinolin-5-yl)(1-(1-(trifluoromethyl)cyclopropyl)-1H-1,2,3-triazol-4-yl)methyl)amino)-4-(neopentylamino)quinoline-3-carbonitrile]
782 | CC(C)(C)CNc1c(C#N)cnc2c(Cl)cc(N[C@@H](c3ccc(Cl)nc3)c3cn(C4(C(F)(F)F)CC4)nn3)cc12 [Example 793, (S)-8-chloro-6-(((6-chloropyridin-3-yl)(1-(1-(trifluoromethyl)cyclopropyl)-1H-1,2,3-triazol-4-yl)methyl)amino)-4-(neopentylamino)quinoline-3-carbonitrile]
710 | [2H]C([2H])(Nc1c(C#N)cnc2c(Cl)cc(N[C@@]([2H])(c3ccc(N(C)C)nc3)c3cn(C4CC4)nn3)cc12)C(C)(C)C [Example 679, (S)-8-chloro-6-(((1-cyclopropyl-1H-1,2,3-triazol-4-yl)(6-(dimethylamino)pyridin-3-yl)methyl-d)amino)-4-((2,2-dimethylpropyl-1,1-d2)amino)quinoline-3-carbonitrile]
230 | Cc1nc(F)ccc1[C@H](Nc1cc(Cl)c2ncc(C#N)c(NCC(C)(C)C)c2c1)c1cn(CC2(C(F)(F)F)CC2)nn1 [Example 751, (S)-8-chloro-6-(((6-fluoro-2-methylpyridin-3-yl)(1-((1-(trifluoromethyl)-cyclopropyl)methyl)-1H-1,2,3-triazol-4-yl)methyl)amino)-4-(neopentylamino)quinoline-3-carbonitrile]
208 | CC(C)(C)CNc1c(C#N)cnc2c(Cl)cc(N[C@H](c3cn(C4(C(F)(F)F)CC4)nn3)c3cccc4c(=O)n(C(F)F)ccc34)cc12 [Example 788, (S)-8-chloro-6-(((2-(difluoromethyl)-1-oxo-1,2-dihydroisoquinolin-5-yl)(1-(1-(trifluoromethyl)cyclopropyl)-1H-1,2,3-triazol-4-yl)methyl)amino)-4-(neopentylamino)quinoline-3-carbonitrile]
178 | Cc1ccc([C@H](Nc2cc(Cl)c3ncc(C#N)c(NCC(C)(C)C)c3c2)c2cn(C3(C(F)(F)F)CC3)nn2)c(C)n1 [Example 687, (S)-8-chloro-6-(((2,6-dimethylpyridin-3-yl)(1-(1-(trifluoromethyl)cyclopropyl)-1H-1,2,3-triazol-4-yl)methyl)amino)-4-(neopentylamino)quinoline-3-carbonitrile]
178 | Cc1nc(F)ccc1[C@H](Nc1cc(Cl)c2ncc(C#N)c(NCC(C)(C)CO)c2c1)c1cn(C2(C(F)F)CC2)nn1 [Example 746, (S)-8-chloro-6-(((1-(1-(difluoromethyl)cyclopropyl)-1H-1,2,3-triazol-4-yl)(6-fluoro-2-methylpyridin-3-yl)methyl)amino)-4-((3-hydroxy-2,2-dimethylpropyl)amino)quinoline-3-carbonitrile]
156 | Cn1c(=O)ccc2c([C@H](Nc3cc(Cl)c4ncc(C#N)c(NCC(C)(C)C)c4c3)c3cn(C4(C(F)(F)F)CC4)nn3)cccc21 [Example 789, (S)-8-chloro-6-(((1-methyl-2-oxo-1,2-dihydroquinolin-5-yl)(1-(1-(trifluoromethyl)cyclopropyl)-1H-1,2,3-triazol-4-yl)methyl)amino)-4-(neopentylamino)quinoline-3-carbonitrile]
141 | CC(C)(C)CNc1c(C#N)cnc2c(Cl)cc(N[C@H](c3cn(C(C)(C)C(F)F)nn3)c3cccc4ncccc34)cc12 [Example 693, (S)-8-chloro-6-(((1-(1,1-difluoro-2-methylpropan-2-yl)-1H-1,2,3-triazol-4-yl)(quinolin-5-yl)methyl)amino)-4-(neopentylamino)quinoline-3-carbonitrile]
104 | Cn1ncc2c([C@H](Nc3cc(Cl)c4ncc(C#N)c(NCC(C)(C)C)c4c3)c3cn(Cc4c(F)cccc4F)nn3)cccc21 [Example 655, (S)-8-chloro-6-(((1-(2,6-difluorobenzyl)-1H-1,2,3-triazol-4-yl)(1-methyl-1H-indazol-4-yl)methyl)amino)-4-(neopentylamino)quinoline-3-carbonitrile]
88 | Cc1nc(F)ccc1[C@H](Nc1cc(C#N)c2ncc(C#N)c(NCC(C)(C)C)c2c1)c1cn(C2(C(F)(F)F)COC2)nn1 [Example 644, (S)-6-(((6-fluoro-2-methylpyridin-3-yl)(1-(3-(trifluoromethyl)oxetan-3-yl)-1H-1,2,3-triazol-4-yl)methyl)amino)-4-(neopentylamino)quinoline-3,8-dicarbonitrile]
46 | Cn1ccc2c([C@H](Nc3cc(Cl)c4ncc(C#N)c(NCC(C)(C)C)c4c3)c3cn(C(CF)CF)nn3)cccc2c1=O [Example 777, (S)-8-chloro-6-(((1-(1,3-difluoropropan-2-yl)-1H-1,2,3-triazol-4-yl)(2-methyl-1-oxo-1,2-dihydroisoquinolin-5-yl)methyl)amino)-4-(neopentylamino)quinoline-3-carbonitrile]

Same assay, conditions: read-out: EC50 TNF; LPS-stimulated human monocytes, TNFα

EC50 [nM] | SMILES
246 | Cn1nccc1[C@H](Nc1cc(Cl)c2ncc(C#N)c(NCC(C)(C)C)c2c1)c1cn(C2(C(F)(F)F)CC2)nn1 [Example 666, (S)-8-chloro-6-(((1-methyl-1H-pyrazol-S-yl)(1-(1-(trifluoromethyl)cyclopropyl)-1H-1,2,3-triazol-4-yl)methyl)amino)-4-(neopentylamino)quinoline-3-carbonitrile]
365 | Cc1nc(F)ccc1[C@H](Nc1cc(Cl)c2ncc(C#N)c(NCC(C)(C)C)c2c1)c1cn(CC(C)(C)C(F)(F)F)nn1 [Example 755]
